This assay in a line: Heparin-affinity chromatography (heparin binding). Particulars: heparin-sepharose; eluted in high-affinity fraction 0.7M to 2.0M NaCl. The text has this:
The eluted proteins are then contacted with a heparin affinity resin. The ordinarily skilled artisan will readily realize that this step is best achieved in a column chromatography mode. Heparin affinity columns are commercially available from some of the same vendors mentioned above. In this step, the molecules of interest, both MPF-4 or CPF-4, bind to the heparin column and are eluted using an increasing linear salt gradient. The preferred salt is NaCl, and the portion of the gradient that is preferably collected is the 0.1-2.0M portion. The more highly preferred portion of the gradient to collect is the 0.7-2.0M portion.
The C4-pool was further fractionated by heparin affinity chromatography on a Econo-pac™ 5 ml heparin-sepharose cartridge (BioRad, Richmond, Calif. 94804). The bound proteins were eluted by a linear gradient of 0 to 2.0M NaCl in phosphate buffer saline (PBS) at a flow rate of 2.0 ml/min. The proteins that eluted from the column were pooled into three fractions: (1) non-heparin binding (flow through), (2) low-affinity heparin binding (0 to 0.7M NaCl), and (3) high-affinity heparin binding (0.7M to 2.0M NaCl) fractions.
The high affinity heparin binding fraction (3) (0.7M to 2.0M NaCl) was applied to a Vydac™ 0.46×10 cm C-4 HPLC column (The Marshall Co.; Worthington, Ohio 43085), previously equilibrated with 27% acetonitrile, 0.1% TFA. […]

Positions of bridges follow the written chain, without caps; N, C: chain ends. Chains are numbered I, II in the order given. No end group written: not given here.

Data on two molecules can be found in patent US5935928A, “Modified platelet factor-4” (Eli Lilly and Company, priority 1996, dated 1999).

On to “MPF-4: Naturally-occurring 54 amino acid protein (SEQ ID NO:1), homologous with the 54 C-terminal residues of PF-4, beginning with Ser-17 (SQVRPRHITSLEVIKAGPHCPTAQLIATLKNGRKICLDLQAPLYKKIIKKLLES)”, for which the heparin binding result is recorded as “bind heparin”.

B1: CPF-4: Proteolytically cleaved, non-reduced PF-4: 16 amino acid chain (SEQ ID NO:2) disulfide bonded to the 54 amino acid chain of MPF-4 (protein)
chain 1: EAEEDGDLQCLCVKTT
chain 2: SQVRPRHITSLEVIKAGPHCPTAQLIATLKNGRKICLDLQAPLYKKIIKKLLES
modifications: disulfide I:10-II:20, I:12-II:36; not fully specified
In the case of B1, the heparin binding entry is “bind heparin”.
